Source: PubChem BioAssay AID330 (DTP/NCI, 2004)
Several values for one entry are separate records, joined by “and”; a condition that tells them apart may be missing. Equal entries are not always repeated. Toxic doses and inconclusive results are not listed.

System: P388 leukemia ip, CD2F1 mice, survival T/C
Test: NCI In Vivo Anticancer Drug Screen. Data for tumor model P388 Leukemia (intraperitoneal) in CD2F1 (CDF1) mice
Details: endpoint: median survival time, higher = longer survival
How it was run: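 Mice carrying the transplanted tumor received test compound or vehicle. Survival was recorded in each group, and the value is the treated-group measurement divided by that of the vehicle-treated control group.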

[1] = dose: 50.0 mg/kg/injection, schedule: Q01DX005 (ip), vehicle: saline with Tween-80
[2] = dose: 60.0 mg/kg/injection, schedule: Q01DX005 (ip), vehicle: saline with Tween-80
[3] = dose: 120.0 mg/kg/injection, schedule: Q01DX005 (ip), vehicle: saline with Tween-80
[4] = dose: 240.0 mg/kg/injection, schedule: Q01DX005 (ip), vehicle: saline with Tween-80
[5] = dose: 100.0 mg/kg/injection, schedule: Q01DX005 (ip), vehicle: saline with Tween-80
[6] = dose: 50.0 mg/kg/injection, schedule: Q01DX005 (ip), vehicle: Klucel (hydroxypropylcellulose) (HPC)
[7] = dose: 100.0 mg/kg/injection, schedule: Q01DX005 (ip), vehicle: Klucel (hydroxypropylcellulose) (HPC)
[8] = dose: 200.0 mg/kg/injection, schedule: Q01DX005 (ip), vehicle: Klucel (hydroxypropylcellulose) (HPC)
[9] = dose: 50.0 mg/kg/injection, schedule: Q01DX009 (ip), vehicle: saline with Tween-80
[10] = dose: 100.0 mg/kg/injection, schedule: Q01DX009 (ip), vehicle: saline with Tween-80
[11] = dose: 200.0 mg/kg/injection, schedule: Q01DX009 (ip), vehicle: saline with Tween-80
[12] = dose: 50.0 mg/kg/injection, schedule: Q01DX009 (ip), vehicle: Klucel (hydroxypropylcellulose) (HPC)
[13] = dose: 100.0 mg/kg/injection, schedule: Q01DX009 (ip), vehicle: Klucel (hydroxypropylcellulose) (HPC)
[14] = dose: 200.0 mg/kg/injection, schedule: Q01DX009 (ip), vehicle: Klucel (hydroxypropylcellulose) (HPC)
[15] = dose: 12.5 mg/kg/injection, schedule: Q01DX009 (ip), vehicle: saline
[16] = dose: 25.0 mg/kg/injection, schedule: Q01DX009 (ip), vehicle: saline
[17] = dose: 50.0 mg/kg/injection, schedule: Q01DX009 (ip), vehicle: saline

## S=C(NCc1ccccc1)NNc1nnc(-c2ccccc2)c(-c2ccccc2)n1
dose: 12.5 mg/kg/injection, schedule: Q01DX005 (ip), vehicle: saline with Tween-80
  T/C: 96 % of control
dose: 25.0 mg/kg/injection, schedule: Q01DX005 (ip), vehicle: saline with Tween-80
  T/C: 94 % of control
[1]
  T/C: 91 % of control

## O=C(c1ccccc1)N(C(=S)N(C(=O)c1ccccc1)c1ccccc1)c1ccccc1
[2]
  T/C: 100 % of control
[3]
  T/C: 91 % of control
[4]
  T/C: 95 % of control

## CC(/C=N/Nc1ccccc1)=N\N=c1/scc(-c2ccc(Cl)cc2)n1-c1ccc(Cl)cc1
[1]
  T/C: 86 % of control
[5]
  T/C: 92 % of control
dose: 200.0 mg/kg/injection, schedule: Q01DX005 (ip), vehicle: saline with Tween-80
  T/C: 94 % of control

## Cc1ccc(S(=O)(=O)C(C#N)CCC(=O)c2ccc(Cl)cc2)cc1 (stereo not drawn)
[6]
  T/C: 107 % of control
[7]
  T/C: 106 % of control
[8]
  T/C: 105 % of control

## Cc1ccc(S(=O)(=O)c2cncnc2N)cc1
dose: 100.0 mg/kg/injection, schedule: Q01DX001 (ip), vehicle: saline
  T/C: 101 % of control
dose: 200.0 mg/kg/injection, schedule: Q01DX001 (ip), vehicle: saline
  T/C: 110 % of control
dose: 400.0 mg/kg/injection, schedule: Q01DX001 (ip), vehicle: saline
  T/C: 110 % of control

## O=C(O)c1nn(Cc2ccc(Cl)cc2)c2ccccc12
[9]
  T/C: 109 % of control
[10]
  T/C: 103 % of control
[11]
  T/C: 110 % of control

## CCCCCCCCCCCN(CCCCCCCCCCC)CC(O)c1cc2c(c3ccccc13)CCCC2 (stereo not drawn)
[6]
  T/C: 98 % of control
[7]
  T/C: 100 % of control
[8]
  T/C: 96 % of control

## O=C1c2ccccc2C(=O)C1c1ccc2c(ccc3ccccc32)n1
[6]
  T/C: 98 % of control
[7]
  T/C: 88 % of control
[8]
  T/C: 96 % of control

## Cc1ccc2ccc3ccc(C)nc3c2n1.O=[N+]([O-])O.O=[N+]([O-])O.[Cu]
dose: 6.25 mg/kg/injection, schedule: Q04DX002 (ip), vehicle: saline
  T/C: 109 % of control
dose: 12.5 mg/kg/injection, schedule: Q04DX002 (ip), vehicle: saline
  T/C: 113 % of control

## O=c1[nH]c2ccccc2c(=O)n1CCCCCCN1CCN(c2cccc(Cl)c2)CC1
[12]
  T/C: 96 % of control
[13]
  T/C: 105 % of control
[14]
  T/C: 100 % of control

## COc1ccc(C(=O)SCCCN=C(N)N)cc1
[1]
  T/C: 103 % of control
[5]
  T/C: 97 % of control

## c1cc2c(cc1CSCc1c(CSCc3ccc4c(c3)OCO4)c(CSCc3ccc4c(c3)OCO4)c(CSCc3ccc4c(c3)OCO4)c(CSCc3ccc4c(c3)OCO4)c1CSCc1ccc3c(c1)OCO3)OCO2
[9]
  T/C: 100 % of control
[10]
  T/C: 99 % of control
[11]
  T/C: 97 % of control

## CNC(=O)OCc1c(COC(=O)NC)c(C)n(-c2ccc(Br)cc2)c1C
[15]
  T/C: 152 % of control and 154 % of control
[16]
  T/C: 157 % of control
[17]
  T/C: 89 % of control

## CN(C)C(=C[N+](=O)[O-])N(C)C
[17]
  T/C: 101 % of control
dose: 100.0 mg/kg/injection, schedule: Q01DX009 (ip), vehicle: saline
  T/C: 103 % of control
dose: 200.0 mg/kg/injection, schedule: Q01DX009 (ip), vehicle: saline
  T/C: 104 % of control

## Oc1ccc(N=Cc2cccs2)cc1
dose: 25.0 mg/kg/injection, schedule: Q01DX009 (ip), vehicle: Klucel (hydroxypropylcellulose) (HPC)
  T/C: 110 % of control
[12]
  T/C: 100 % of control
[13]
  T/C: 106 % of control
[14]
  T/C: 105 % of control

## CC(C)N1C(=O)C2C3C=CC(C2C1=O)C1C2C(=O)N(C(C)C)C(=O)C2C31 (stereo not drawn)
dose: 100.0 mg/kg/injection, schedule: Q01DX001 (ip), vehicle: saline with Tween-80
  T/C: 99 % of control
dose: 200.0 mg/kg/injection, schedule: Q01DX001 (ip), vehicle: saline with Tween-80
  T/C: 96 % of control
dose: 400.0 mg/kg/injection, schedule: Q01DX001 (ip), vehicle: saline with Tween-80
  T/C: 89 % of control

## CCCCCCCCCCC[N+]1([O-])CCOCC1
[15]
  T/C: 101 % of control
[16]
  T/C: 99 % of control
[17]
  T/C: 99 % of control and 89 % of control

## [N-]=[N+]=Nc1ccnc2ccc(C3CCCCC3)cc12
[2]
  T/C: 100 % of control
[3]
  T/C: 92 % of control
[4]
  T/C: 100 % of control
